Results on one compound are retold here after paper PMC6576746, “Rational discovery of dual-indication multi-target PDE/Kinase inhibitor for precision anti-cancer therapy using structural systems pharmacology” (PLoS Computational Biology, 2019).

What all share (assay): biochemical
Design in all cases: DiscoverX KinomeScan competition binding assay across human kinases; per cent of control at 10 and 100 uM

The target in test [1] is T1, RSK3(Kin.Dom.2-C-terminal) (Homo sapiens, UniProt Q15349).
T1 construct: gene RPS6KA2; Kin.Dom.2-C-terminal
The settings on record: competition binding, % of control; read-out: Percent Control (100 uM Levosimendan). In outline: (§1)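 KinomeScan competition binding was run across a human kinase panel at 10 μM and 100 μM levosimendan. Results are %control = (test − positive control)/(negative control − positive control) × 100.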

Another test has as its target TNIK (Homo sapiens, UniProt Q9UKE5). To be noted: competition binding, % of control. Put shortly:
as §1

The next test deals with CAMK1G (Homo sapiens, UniProt Q96NX5). To be noted: competition binding, % of control; read-out: Percent Control (100 uM Levosimendan). Put shortly: as §1
Sequence of CAMK1G (Q96NX5 whole entry): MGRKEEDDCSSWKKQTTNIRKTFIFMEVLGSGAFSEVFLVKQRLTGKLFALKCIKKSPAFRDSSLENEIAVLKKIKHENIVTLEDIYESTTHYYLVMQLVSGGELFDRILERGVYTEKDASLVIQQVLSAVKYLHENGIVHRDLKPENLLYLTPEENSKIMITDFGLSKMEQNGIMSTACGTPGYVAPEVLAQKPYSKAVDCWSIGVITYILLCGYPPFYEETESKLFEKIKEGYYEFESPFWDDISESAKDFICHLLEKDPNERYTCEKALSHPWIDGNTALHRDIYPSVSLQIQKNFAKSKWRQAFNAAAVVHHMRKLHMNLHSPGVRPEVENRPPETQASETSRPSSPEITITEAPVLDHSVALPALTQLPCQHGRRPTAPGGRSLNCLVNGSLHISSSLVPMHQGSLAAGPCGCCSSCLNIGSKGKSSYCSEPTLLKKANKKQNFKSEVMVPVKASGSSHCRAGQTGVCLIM
For another test, the target named is T2, ZAK (Homo sapiens, UniProt Q9NYL2).
T2 construct: gene MAP3K20
T2 sequence (Q9NYL2 whole entry): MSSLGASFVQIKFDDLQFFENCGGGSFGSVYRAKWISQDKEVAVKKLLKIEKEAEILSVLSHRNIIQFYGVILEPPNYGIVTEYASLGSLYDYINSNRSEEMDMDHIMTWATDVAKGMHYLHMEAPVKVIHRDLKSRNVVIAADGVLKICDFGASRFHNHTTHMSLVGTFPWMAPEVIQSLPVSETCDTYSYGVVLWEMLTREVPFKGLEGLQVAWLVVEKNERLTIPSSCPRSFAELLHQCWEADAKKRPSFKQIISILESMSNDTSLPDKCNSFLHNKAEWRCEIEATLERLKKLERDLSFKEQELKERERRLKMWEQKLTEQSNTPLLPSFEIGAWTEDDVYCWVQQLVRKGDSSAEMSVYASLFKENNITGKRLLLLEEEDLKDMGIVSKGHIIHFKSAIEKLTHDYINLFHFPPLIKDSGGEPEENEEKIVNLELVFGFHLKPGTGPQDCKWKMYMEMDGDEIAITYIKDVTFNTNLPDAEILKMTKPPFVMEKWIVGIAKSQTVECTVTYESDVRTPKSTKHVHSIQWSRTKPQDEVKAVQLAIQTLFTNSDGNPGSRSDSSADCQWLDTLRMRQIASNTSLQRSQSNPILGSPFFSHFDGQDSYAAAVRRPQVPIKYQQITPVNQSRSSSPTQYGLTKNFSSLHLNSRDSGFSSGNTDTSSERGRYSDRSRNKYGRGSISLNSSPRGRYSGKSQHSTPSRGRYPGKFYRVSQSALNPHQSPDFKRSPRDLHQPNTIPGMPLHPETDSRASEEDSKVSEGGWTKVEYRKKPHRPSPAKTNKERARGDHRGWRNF
To be noted: competition binding, % of control. Put shortly:
as §1

The target of a further test is T3, SNARK (Homo sapiens, UniProt Q9H093).
T3 construct: gene NUAK2
T3 sequence (Q9H093 whole entry): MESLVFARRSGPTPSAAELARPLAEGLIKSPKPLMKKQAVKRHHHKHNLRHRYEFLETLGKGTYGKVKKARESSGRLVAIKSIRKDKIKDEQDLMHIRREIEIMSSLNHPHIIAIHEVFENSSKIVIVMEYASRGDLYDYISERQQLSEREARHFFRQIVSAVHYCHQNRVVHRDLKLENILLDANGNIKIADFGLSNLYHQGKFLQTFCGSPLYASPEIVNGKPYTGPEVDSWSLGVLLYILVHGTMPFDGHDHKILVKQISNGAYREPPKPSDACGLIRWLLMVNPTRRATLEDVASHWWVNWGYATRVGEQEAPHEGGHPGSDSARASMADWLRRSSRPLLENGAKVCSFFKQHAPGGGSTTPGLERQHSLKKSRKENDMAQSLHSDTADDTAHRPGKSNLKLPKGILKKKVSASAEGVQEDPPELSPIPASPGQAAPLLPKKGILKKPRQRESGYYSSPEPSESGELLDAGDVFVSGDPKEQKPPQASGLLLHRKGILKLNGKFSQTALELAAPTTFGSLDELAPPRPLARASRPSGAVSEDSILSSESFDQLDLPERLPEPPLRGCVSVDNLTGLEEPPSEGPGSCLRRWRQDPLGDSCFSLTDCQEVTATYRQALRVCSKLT
The settings on record: competition binding, % of control; read-out: Percent Control (100 uM Levosimendan). In outline:
as §1

Another test deals with T4, SgK110 (Homo sapiens, UniProt P0C264).
T4 construct: gene SBK3
To be noted: competition binding, % of control; read-out: Percent Control (100 uM Levosimendan). In outline:
as §1

The next test addresses PIK3CA(Q546K) (Homo sapiens, UniProt P42336, Q546K). To be noted: competition binding, % of control; read-out: Percent Control (100 uM Levosimendan). Put shortly: as §1
A further test has as its target T5, NDR2 (Homo sapiens, UniProt Q9Y2H1).
T5 construct: gene STK38L
To be noted: competition binding, % of control; read-out: Percent Control (100 uM Levosimendan). In outline: as §1

For another test, the target named is EPHA1 (Homo sapiens, UniProt P21709). To be noted: competition binding, % of control; read-out: Percent Control (100 uM Levosimendan). Put shortly: as §1
The next test addresses T6, MLCK (Homo sapiens, UniProt Q32MK0).
T6 construct: gene MYLK3
To be noted: competition binding, % of control; read-out: Percent Control (100 uM Levosimendan). Put shortly: as §1

The next test has as its target AURKB (Homo sapiens, UniProt Q96GD4). To be noted: competition binding, % of control. Put shortly: as §1
The target in another test is T7, ADCK3 (Homo sapiens, UniProt Q8NI60).
T7 construct: gene COQ8A
To be noted: competition binding, % of control; read-out: Percent Control (100 uM Levosimendan). Put shortly:
as §1

Another test has as its target RET (Homo sapiens, UniProt P07949). The settings on record: competition binding, % of control; read-out: Percent Control (100 uM Levosimendan). Put shortly:
as §1

A further test addresses NEK2 (Homo sapiens, UniProt P51955). To be noted: competition binding, % of control; read-out: Percent Control (100 uM Levosimendan). In outline:
as §1

The next test deals with SGK3 (Homo sapiens, UniProt Q96BR1). The settings on record: competition binding, % of control; read-out: Percent Control (100 uM Levosimendan). In outline:
as §1

In another test the target is T8, MKK7 (Homo sapiens, UniProt O14733).
T8 construct: gene MAP2K7
To be noted: competition binding, % of control; read-out: Percent Control (100 uM Levosimendan). Put shortly:
as §1

A further test has as its target T9, PIP5K2C (Homo sapiens, UniProt Q8TBX8).
T9 construct: gene PIP4K2C
The settings on record: competition binding, % of control. In outline:
as §1

For the next test, the target named is EPHB1 (Homo sapiens, UniProt P54762). To be noted: competition binding, % of control; read-out: Percent Control (100 uM Levosimendan). In outline: as §1
Sequence of EPHB1 (P54762 whole entry): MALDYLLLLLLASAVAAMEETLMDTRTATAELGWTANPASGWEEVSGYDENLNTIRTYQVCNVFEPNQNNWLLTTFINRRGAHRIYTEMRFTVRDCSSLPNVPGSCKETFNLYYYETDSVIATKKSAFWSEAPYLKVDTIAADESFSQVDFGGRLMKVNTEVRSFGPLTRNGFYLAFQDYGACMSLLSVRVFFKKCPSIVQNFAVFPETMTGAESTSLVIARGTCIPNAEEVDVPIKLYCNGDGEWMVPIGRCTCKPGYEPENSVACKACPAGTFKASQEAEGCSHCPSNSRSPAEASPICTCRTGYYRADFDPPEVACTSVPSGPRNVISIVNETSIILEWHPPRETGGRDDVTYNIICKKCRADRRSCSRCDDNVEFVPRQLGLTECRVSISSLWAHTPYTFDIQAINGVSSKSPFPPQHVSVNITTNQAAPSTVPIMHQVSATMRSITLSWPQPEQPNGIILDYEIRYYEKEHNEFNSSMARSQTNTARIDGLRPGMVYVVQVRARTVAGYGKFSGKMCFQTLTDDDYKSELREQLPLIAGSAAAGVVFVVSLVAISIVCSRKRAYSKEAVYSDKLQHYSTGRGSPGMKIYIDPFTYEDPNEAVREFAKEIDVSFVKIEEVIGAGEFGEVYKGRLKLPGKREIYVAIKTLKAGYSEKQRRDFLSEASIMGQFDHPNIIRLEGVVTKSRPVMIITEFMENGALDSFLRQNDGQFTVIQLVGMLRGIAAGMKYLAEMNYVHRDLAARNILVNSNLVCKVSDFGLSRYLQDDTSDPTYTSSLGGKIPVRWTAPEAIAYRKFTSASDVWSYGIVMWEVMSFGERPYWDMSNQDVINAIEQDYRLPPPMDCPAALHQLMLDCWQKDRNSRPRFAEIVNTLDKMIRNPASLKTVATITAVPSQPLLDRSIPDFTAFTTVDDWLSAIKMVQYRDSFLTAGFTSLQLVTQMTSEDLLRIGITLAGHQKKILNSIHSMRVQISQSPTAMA
[2] abbreviates: read-out: Percent Control (10 uM Levosimendan).
[3] abbreviates: read-out: Percent Control (100 uM Levosimendan).

T9 sequence (Q8TBX8 whole entry): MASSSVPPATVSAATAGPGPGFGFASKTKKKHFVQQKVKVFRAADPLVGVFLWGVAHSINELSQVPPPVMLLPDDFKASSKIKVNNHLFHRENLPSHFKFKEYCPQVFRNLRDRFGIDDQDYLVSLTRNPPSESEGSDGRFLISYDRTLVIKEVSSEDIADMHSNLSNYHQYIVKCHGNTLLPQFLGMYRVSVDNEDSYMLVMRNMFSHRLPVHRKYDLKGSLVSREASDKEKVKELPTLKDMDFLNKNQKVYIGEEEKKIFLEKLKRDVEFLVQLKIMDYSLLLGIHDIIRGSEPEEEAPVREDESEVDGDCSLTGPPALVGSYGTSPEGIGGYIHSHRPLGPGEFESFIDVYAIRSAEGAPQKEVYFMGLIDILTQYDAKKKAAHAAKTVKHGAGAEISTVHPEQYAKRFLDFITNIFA
Sequence of AURKB (Q96GD4 whole entry): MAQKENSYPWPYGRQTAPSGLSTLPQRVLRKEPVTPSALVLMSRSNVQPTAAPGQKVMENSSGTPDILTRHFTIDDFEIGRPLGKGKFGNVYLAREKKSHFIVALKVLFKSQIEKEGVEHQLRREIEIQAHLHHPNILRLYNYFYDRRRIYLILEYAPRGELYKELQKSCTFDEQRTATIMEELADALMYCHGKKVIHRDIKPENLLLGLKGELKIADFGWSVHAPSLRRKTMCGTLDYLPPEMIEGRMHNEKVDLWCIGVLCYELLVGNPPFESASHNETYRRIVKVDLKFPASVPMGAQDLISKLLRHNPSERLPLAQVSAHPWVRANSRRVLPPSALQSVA
Sequence of TNIK (Q9UKE5 whole entry): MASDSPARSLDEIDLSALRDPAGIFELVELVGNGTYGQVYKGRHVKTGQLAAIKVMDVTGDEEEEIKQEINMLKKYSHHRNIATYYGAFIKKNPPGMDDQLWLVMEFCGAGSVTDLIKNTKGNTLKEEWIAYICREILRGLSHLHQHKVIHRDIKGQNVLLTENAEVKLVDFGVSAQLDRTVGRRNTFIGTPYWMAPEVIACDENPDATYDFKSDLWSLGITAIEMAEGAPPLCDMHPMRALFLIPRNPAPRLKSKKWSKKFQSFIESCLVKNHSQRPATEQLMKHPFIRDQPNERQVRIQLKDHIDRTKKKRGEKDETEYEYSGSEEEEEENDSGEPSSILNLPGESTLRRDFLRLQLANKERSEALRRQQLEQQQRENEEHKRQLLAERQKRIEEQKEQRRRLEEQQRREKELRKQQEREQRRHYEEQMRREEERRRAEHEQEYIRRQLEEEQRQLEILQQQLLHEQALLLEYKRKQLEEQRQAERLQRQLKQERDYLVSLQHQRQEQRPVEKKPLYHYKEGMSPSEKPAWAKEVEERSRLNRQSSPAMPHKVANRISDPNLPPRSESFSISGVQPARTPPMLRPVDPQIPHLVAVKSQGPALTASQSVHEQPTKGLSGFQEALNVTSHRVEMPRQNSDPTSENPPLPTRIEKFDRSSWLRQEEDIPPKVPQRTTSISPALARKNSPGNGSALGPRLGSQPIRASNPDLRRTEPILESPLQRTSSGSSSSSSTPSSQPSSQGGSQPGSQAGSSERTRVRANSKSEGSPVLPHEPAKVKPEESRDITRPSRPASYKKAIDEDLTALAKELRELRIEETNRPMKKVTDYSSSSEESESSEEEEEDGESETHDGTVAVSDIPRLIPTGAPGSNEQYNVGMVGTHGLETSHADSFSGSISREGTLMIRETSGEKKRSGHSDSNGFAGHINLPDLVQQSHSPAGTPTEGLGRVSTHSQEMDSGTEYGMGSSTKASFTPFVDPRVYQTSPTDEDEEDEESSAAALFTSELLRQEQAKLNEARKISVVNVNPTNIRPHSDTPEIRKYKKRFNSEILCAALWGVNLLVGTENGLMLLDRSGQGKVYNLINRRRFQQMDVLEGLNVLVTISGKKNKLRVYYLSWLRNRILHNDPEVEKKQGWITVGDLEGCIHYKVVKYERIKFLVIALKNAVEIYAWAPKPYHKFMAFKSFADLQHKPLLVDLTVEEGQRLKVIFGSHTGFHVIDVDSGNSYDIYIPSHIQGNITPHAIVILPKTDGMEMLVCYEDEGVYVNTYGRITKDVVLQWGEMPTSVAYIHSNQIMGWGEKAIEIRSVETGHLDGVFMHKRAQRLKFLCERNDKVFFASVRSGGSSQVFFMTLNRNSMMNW

Consider `C[C@@H]1CC(=O)NN=C1c1ccc(NN=C(C#N)C#N)cc1` [levosimendan], for which the remaining binding at 100 µM in [1] came out at 100%; at TNIK (setting [3]), 32%; on CAMK1G, 62%; at ZAK (setting [3]), 52%; at SNARK it was 100%; at SgK110, 100%. The remaining binding at 100 µM on PIK3CA(Q546K) stood at 100%; on NDR2, 96%; at EPHA1, 98%; on MLCK it was 100%; at AURKB (setting [3]) it was 28%; at ADCK3 it was 57%. Further, the remaining binding at 100 µM was 88% at RET; 96% on NEK2; 92% at SGK3; 100% at MKK7; 5.9% on PIP5K2C (setting [3]); 96% at EPHB1. Also, the remaining binding at 10 µM on TNIK (setting [2]) is 77%; at ZAK (setting [2]) it was 100%; on AURKB (setting [2]), 75%; at PIP5K2C (setting [2]), 52%.
